Measured values published in patent publication US20240262812A1, “N-SUBSTITUTED PHENYLSULFONAMIDE COMPOUND AND USE THEREOF” (Shanghai Leado Pharmatech Co., Ltd., priority 2021, published 2024).

Target: T1, chemokine receptor CCR9 (Homo sapiens, UniProt P51686)
T1 construct: expressed in transfected cells
T1 sequence (P51686 1-369): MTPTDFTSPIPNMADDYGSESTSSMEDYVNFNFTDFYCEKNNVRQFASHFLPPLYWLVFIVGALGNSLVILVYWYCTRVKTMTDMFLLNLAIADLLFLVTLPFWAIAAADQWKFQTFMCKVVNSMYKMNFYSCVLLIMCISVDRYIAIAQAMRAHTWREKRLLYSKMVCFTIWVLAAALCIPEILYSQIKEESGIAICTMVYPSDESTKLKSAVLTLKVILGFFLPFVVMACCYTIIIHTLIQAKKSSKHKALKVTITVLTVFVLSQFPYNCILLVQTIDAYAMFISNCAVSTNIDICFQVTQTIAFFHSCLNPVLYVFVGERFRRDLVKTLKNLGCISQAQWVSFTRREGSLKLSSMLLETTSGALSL
Test: CCR9 antagonistic activity, calcium flow (Fluo-4, FlexStation), CCL25 agonist
Format: cell-based
Settings: antagonistic mode, CCL25 150 nM; for inhibition at 100 µM: read-out: Inhibition rate (%) (100 μM)
Text: 2.1 Main reagents: DMEM culture medium (GIBCO); dimethyl sulfoxide (Sigma); FLUO-4, AM (Invitrogen) 2.2 Main instrument: Flexstation-3 (Molecular Devices) The test concentration gradient of the compound and replicates were set according to the requirement of testing ICSO. All test substances with 8 concentrations were set, with 3 replicates for each concentration. By establishing a cell line that cotransformed the receptor and G16, the receptor being activated can induce the activation of Gα16 protein, thereby activating phospholipase C (PLC) to produce IP3 and DAG. IP3 can bind to the IP3 receptor on the intracellular endoplasmic reticulum and mitochondria, leading to the release of intracellular calcium. Therefore, measuring changes in intracellular calcium can serve as a method for detecting the activation status of target receptor. Fluo-4/AM is a calcium fluorescent probe indicator used to measure calcium ion, as a non-polar lipophilic compound, under the action of cell lipase after entering cells, the AM group dissociates and releases Fluo-4; since Fluo-4 is a polar molecule, it is not easy to pass through lipid bilayers, allowing it to remain in the cell for a long time. Ultimately, the level of G protein activation can be reflected by measuring the excited fluorescence intensity. […] Cells stably expressing the target receptor/Ga16 were planted on a 96 well plate and cultured overnight. 2. The culture solution was removed from the well planted cells, then 40 μL/well of freshly prepared dye was added. The mixture was incubated at a constant temperature in a 37° C. incubator for 40 minutes. 3. The drug to be tested was diluted with calcium buffer and mixed well. 4. The dye was absorbed and discarded. After washed once with freshly prepared calcium buffer, 50 μL of calcium buffer that dissolved the drug to be tested was added for replacement. 5. The FlexStation II instrument was used for detection. Starting from the 15th second, […] dissolved with known agonist was automatically added by the instrument, and finally the fluorescence value at 525 nm was readed. The following formula was used to calculate the cell response rate (% Response) for each sample under each concentration. […] IC50 value was calculated using GraphPad Prism.

inhibition at 100 µM [%] | IC50 [µM] | Structure (SMILES)
3 | > 100 | CNCc1ccc(-c2nccs2)c(NS(=O)(=O)c2ccccc2)c1 [IA-51, N-(5-((methylamino)methyl)-2-(thiazol-2-yl)phenyl)benzenesulfonamide]
3 | > 100 | CNCc1ccc(NS(=O)(=O)c2ccsc2)c(-c2ccco2)c1 [IA-30]
8 | > 100 | CNCc1ccc(-c2cc[nH]n2)c(NS(=O)(=O)c2ccccc2)c1 [IA-55, N-(5-((methylamino)methyl)-2-(1H-pyrazol-3-yl)phenyl)benzenesulfonamide]
8 | > 100 | NCc1ccc(NS(=O)(=O)c2ccsc2)c(-c2ccco2)c1 [ID-5]
